From US9113629B2, “4-amino-6-(4-substituted-phenyl)-picolinates and 6-amino-2-(4-substituted-phenyl)-pyrimidine-4-carboxylates and their use as herbicides” (DOW AGROSCIENCES LLC, priority 2013, dated 2015) come the findings set out here.

What all share (assay): Post-emergent Test III, herbicidal activity in wheat and barley
Common to all, as to assay type: in vivo

Assay [1] deals with VIOSS: wild pansy (Viola tricolor), field violet (Viola arvensis). Conditions: Table 8, 21 d; for GR50 VIOSS: dose for 50 percent growth reduction; for GR50 VIOSS / GR80 VIOSS: probit analysis; for GR80 VIOSS: dose for 80 percent growth reduction; for pest or weed control at 35 g/ha / pest or weed control at 70 g/ha / pest or weed control at 140 g/ha: Viola tricolor, post-emergence, 504 h, post-emergent, read-out: Visual Growth Reduction (%) 21 Days After Application VIOSS; for pest or weed control at 35 g/ha: 35 g ai/ha; for pest or weed control at 70 g/ha: 70 g ai/ha; for pest or weed control at 140 g/ha: 140 g ai/ha. The method, boiled down: (§1)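 GR20, GR50, GR80 and GR90 come from probit analysis of visual injury scores (0 = none, 100 = complete kill) taken 21 d after treatment. Foliar application was by track sprayer delivering 187 L/ha at five rates, from high down to 1/16×, onto greenhouse plants at the 2–3 leaf stage, with solvent-blank controls.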

Assay [2] deals with SASKR: Russian thistle (Salsola iberica). Conditions: Table 8, 21 d; for pest or weed control at 35 g/ha / pest or weed control at 70 g/ha / pest or weed control at 140 g/ha: Salsola tragus, post-emergence, 504 h, post-emergent, read-out: Visual Growth Reduction (%) 21 Days After Application SASKR; for pest or weed control at 35 g/ha: 35 g ai/ha; for pest or weed control at 70 g/ha: 70 g ai/ha; for GR50 SASKR: dose for 50 percent growth reduction; for GR50 SASKR / GR80 SASKR: probit analysis; for GR80 SASKR: dose for 80 percent growth reduction; for pest or weed control at 140 g/ha: 140 g ai/ha. The method, boiled down:
as §1

Assay [3] relates to CIRAR: Canada thistle (Cirsium arvense). Conditions: Table 8, 21 d; for pest or weed control at 35 g/ha / pest or weed control at 70 g/ha / pest or weed control at 140 g/ha: Cirsium arvense, post-emergence, 504 h, post-emergent, read-out: Visual Growth Reduction (%) 21 Days After Application CIRAR; for pest or weed control at 35 g/ha: 35 g ai/ha; for pest or weed control at 70 g/ha: 70 g ai/ha; for GR50 CIRAR: dose for 50 percent growth reduction; for GR50 CIRAR / GR80 CIRAR: probit analysis; for GR80 CIRAR: dose for 80 percent growth reduction; for pest or weed control at 140 g/ha: 140 g ai/ha. The method, boiled down:
as §1

Assay [4] has as its system GALAP: cleavers (Galium aparine). The conditions noted are these: Table 8, 21 d; for pest or weed control at 35 g/ha / pest or weed control at 70 g/ha / pest or weed control at 140 g/ha: Galium aparine, post-emergence, 504 h, post-emergent, read-out: Visual Growth Reduction (%) 21 Days After Application GALAP; for pest or weed control at 35 g/ha: 35 g ai/ha; for pest or weed control at 70 g/ha: 70 g ai/ha; for GR50 GALAP: dose for 50 percent growth reduction; for GR50 GALAP / GR80 GALAP: probit analysis; for GR80 GALAP: dose for 80 percent growth reduction; for pest or weed control at 140 g/ha: 140 g ai/ha. The method, boiled down:
as §1

As for `Nc1cc(-c2ccc(I)cc2F)nc(C(=O)O)c1Cl` [Compound 124], in assay [1], the “GR50 VIOSS” value is recorded as 24 g ai/ha, the “GR80 VIOSS” value is on record as 49 g ai/ha, the pest or weed control at 35 g/ha was in the range of 60 to 74% and the pest or weed control at 70 g/ha fell in the range of 95 to 100%. Further, in assay [2], the pest or weed control at 35 g/ha is 60 to 74%, the pest or weed control at 70 g/ha fell in the range of 85 to 94%, the “GR50 SASKR” value is on record as 12 g ai/ha and the “GR80 SASKR” value came out at 53 g ai/ha. For the same compound, in assay [3], the pest or weed control at 35 g/ha fell in the range of 60 to 74%, the pest or weed control at 70 g/ha lay in the range of 75 to 84%, the “GR50 CIRAR” value is listed as 24 g ai/ha and the “GR80 CIRAR” value came to 91 g ai/ha. Moreover, in assay [4], the pest or weed control at 35 g/ha lay in the range of 85 to 94%, the pest or weed control at 70 g/ha fell in the range of 95 to 100%, the “GR50 GALAP” value is reported as 6 g ai/ha and the “GR80 GALAP” value is given as 21 g ai/ha.

For the compound `COC(=O)c1nc(-c2ccc(C#N)c(F)c2)c(F)c(N)c1Cl` [Compound 135, methyl 4-amino-3-chloro-6-(4-cyano-3-fluorophenyl)-5-fluoropicolinate], in assay [1], the “GR50 VIOSS” value turned out to be 23 g ai/ha, the “GR80 VIOSS” value was over 140 g ai/ha, the pest or weed control at 35 g/ha lay within 60 to 74% and the pest or weed control at 70 g/ha is 60 to 74%. Also, the pest or weed control at 140 g/ha in assay [1] was 75 to 84%. In assay [2], the pest or weed control at 35 g/ha lay within 60 to 74%, the pest or weed control at 70 g/ha lay in the range of 60 to 74%, the pest or weed control at 140 g/ha was in the range of 75 to 84% and the “GR50 SASKR” value was 3 g ai/ha. The “GR80 SASKR” value in assay [2] is over 140 g ai/ha. In addition, in assay [3], the pest or weed control at 35 g/ha was 85 to 94%, the pest or weed control at 70 g/ha was 85 to 94%, the pest or weed control at 140 g/ha lay in the range of 85 to 94% and the “GR50 CIRAR” value is on record as 1 g ai/ha. In addition, the “GR80 CIRAR” value in assay [3] was determined as 13 g ai/ha. In assay [4], the pest or weed control at 35 g/ha was 60 to 74%, the pest or weed control at 70 g/ha was in the range of 95 to 100%, the pest or weed control at 140 g/ha was 95 to 100% and the “GR50 GALAP” value is on record as 12 g ai/ha. In assay [4], the “GR80 GALAP” value was found to be 38 g ai/ha.

Consider `Nc1c(Cl)c(C(=O)O)nc(-c2ccc(I)c(F)c2)c1Cl` [Compound 145, 4-Amino-3,5-dichloro-6-(3-fluoro-4-iodophenyl)picolinic acid], for which, in assay [1], the “GR50 VIOSS” value is reported as over 140 g ai/ha, the “GR80 VIOSS” value was over 140 g ai/ha, the pest or weed control at 35 g/ha fell in the range of 0 to 29% and the pest or weed control at 70 g/ha fell in the range of 0 to 29%. For the same compound, the pest or weed control at 140 g/ha in assay [1] was in the range of 30 to 44%. For the same compound, in assay [2], the pest or weed control at 35 g/ha lay within 60 to 74%, the pest or weed control at 70 g/ha was in the range of 75 to 84%, the pest or weed control at 140 g/ha fell in the range of 85 to 94% and the “GR80 SASKR” value was found to be 79 g ai/ha. Besides, in assay [3], the pest or weed control at 35 g/ha lay in the range of 95 to 100%, the pest or weed control at 70 g/ha lay in the range of 85 to 94%, the pest or weed control at 140 g/ha lay in the range of 95 to 100% and the “GR50 CIRAR” value was 2 g ai/ha. In assay [3], the “GR80 CIRAR” value is reported as 7 g ai/ha. In assay [4], the pest or weed control at 35 g/ha was in the range of 45 to 59%, the pest or weed control at 70 g/ha was 75 to 84%, the pest or weed control at 140 g/ha fell in the range of 95 to 100% and the “GR50 GALAP” value was 18 g ai/ha. For the same compound, the “GR80 GALAP” value in assay [4] stood at 54 g ai/ha.

Consider `COC(=O)c1nc(-c2ccc(Br)c(F)c2)nc(N)c1OC` [Compound 171, Methyl 6-amino-2-(4-bromo-3-fluorophenyl)-5-methoxypyrimidine-4-carboxylate], for which, in assay [1], the “GR50 VIOSS” value came to 5 g ai/ha, the “GR80 VIOSS” value came out at 10 g ai/ha, the pest or weed control at 35 g/ha was 95 to 100% and the pest or weed control at 70 g/ha lay within 95 to 100%. For the same compound, in assay [2], the pest or weed control at 35 g/ha fell in the range of 60 to 74%, the pest or weed control at 70 g/ha lay in the range of 75 to 84%, the “GR50 SASKR” value turned out to be 21 g ai/ha and the “GR80 SASKR” value was found to be 67 g ai/ha. Further, in assay [3], the pest or weed control at 35 g/ha was in the range of 60 to 74%, the pest or weed control at 70 g/ha fell in the range of 60 to 74%, the “GR50 CIRAR” value was 17 g ai/ha and the “GR80 CIRAR” value is 80 g ai/ha. For the same compound, in assay [4], the pest or weed control at 35 g/ha is 85 to 94%, the pest or weed control at 70 g/ha was in the range of 95 to 100% and the “GR80 GALAP” value was found to be 23 g ai/ha.
